According to PMC6597290 (Nature, 2019):

What was measured:
BT2068 = target: T1, BT2068 (Bacteroides thetaiotaomicron, UniProt Q8A618); experiment: LC-MS drug depletion by E. coli expressing bt2068; format: cell-based; conditions: whole E. coli cells, anaerobic, 37 °C
T1 sequence (Q8A618 1-253): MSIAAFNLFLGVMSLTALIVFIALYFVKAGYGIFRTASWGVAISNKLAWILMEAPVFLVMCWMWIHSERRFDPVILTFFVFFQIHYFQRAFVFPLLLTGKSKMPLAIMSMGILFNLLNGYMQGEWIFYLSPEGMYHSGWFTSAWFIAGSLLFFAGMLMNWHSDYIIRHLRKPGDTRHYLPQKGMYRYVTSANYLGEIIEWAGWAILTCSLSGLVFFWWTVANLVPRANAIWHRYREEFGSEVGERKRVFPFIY

BT4096 = target: T2, BT4096 (Bacteroides thetaiotaomicron, UniProt Q8A0C5); experiment: LC-MS time course of deacetylation; format: biochemical; conditions: Tris-HCl 10 mM pH 7, 2.5 mM MgSO4 and Mn, 37 °C; 0-250 µM substrate
T2 sequence (Q8A0C5 21-460): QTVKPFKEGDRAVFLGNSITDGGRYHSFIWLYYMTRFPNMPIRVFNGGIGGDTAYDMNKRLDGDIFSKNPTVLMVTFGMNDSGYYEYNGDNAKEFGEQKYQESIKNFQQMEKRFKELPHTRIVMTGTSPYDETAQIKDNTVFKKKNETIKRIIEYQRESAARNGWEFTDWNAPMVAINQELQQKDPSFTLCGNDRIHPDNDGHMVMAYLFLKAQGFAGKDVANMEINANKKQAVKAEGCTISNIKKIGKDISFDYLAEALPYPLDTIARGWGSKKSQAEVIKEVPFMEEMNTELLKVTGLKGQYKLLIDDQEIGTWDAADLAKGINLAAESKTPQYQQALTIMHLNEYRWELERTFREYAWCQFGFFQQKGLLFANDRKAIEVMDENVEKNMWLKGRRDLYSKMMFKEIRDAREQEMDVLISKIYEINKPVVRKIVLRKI

## C#C[C@]1(O)CC[C@H]2[C@@H]3CCC4=CC(=O)CC[C@@H]4[C@H]3CC[C@@]21CC [levonorgestrel]
BT2068
  LC-MS drug depletion by E. coli expressing bt2068: BT2068 also metabolizes the structurally related compounds levonorgestrel and progesterone

## CC(=O)[C@H]1CC[C@H]2[C@@H]3CCC4=CC(=O)CC[C@]4(C)[C@H]3CC[C@]12C [progesterone]
BT2068
  LC-MS drug depletion by E. coli expressing bt2068: BT2068 also metabolizes the structurally related compounds levonorgestrel and progesterone

## COc1ccc([C@@H]2Sc3ccccc3N(CCN(C)C)C(=O)[C@@H]2OC(C)=O)cc1 [diltiazem]
BT4096
  LC-MS time course of deacetylation: demonstrated that the purified enzyme catalyzes the drug transformation (Fig. 3c)

## CNCCN1C(=O)[C@H](OC(C)=O)[C@H](c2ccc(OC)cc2)Sc2ccccc21 [N-desmethyldiltiazem]
BT4096
  LC-MS time course of deacetylation: BT4096 also deacetylates N-desmethyldiltiazem
